Results reported in the METLIN SMRT retention time set (Domingo-Almenara et al. 2019).

Test: gradient 5% acetonitrile 3 min, to 50% in 2 min, to 85% in 15 min, held 3 min, 100 µL/min
Details: column: Zorbax Extend-C18 2.1 x 50 mm; eluents: water / acetonitrile, 0.1% formic acid
Outline: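 Over 3 months, pure standards in mixtures of ~100 molecules were run by HPLC coupled to a quadrupole time-of-flight mass spectrometer in positive and negative ionization mode. The column was a Zorbax Extend-C18 (2.1 × 50 mm, 1.8 μm) at 100 μL/min, eluted with water and acetonitrile each holding 0.1% formic acid, with 40 μL dead and 900 μL dwell volumes. Retention time was determined from adduct peaks chosen by software and checked manually.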

Structure (SMILES) | RP-LC retention time [s]
CCOc1nn(CC)cc1C(=O)NCCc1c[nH]c2ccccc12 | 736
COc1ccc(-c2cc3n(n2)CCCN(S(=O)(=O)c2cccc4cccnc24)C3)cc1 | 907
COc1ccccc1-c1csc(NC(=O)c2sc(-c3ccccc3)nc2C)n1 | 1250
COc1ccc(-n2nc3c(c2N)CSC3)cc1 | 629
CCOC(=O)CCC(=O)Nc1cc(C)nn1-c1nc(-c2ccc(F)cc2)cs1 | 1100
Cc1ccccc1Nc1c(-c2cc(Br)ccc2F)nc2ccccn12 | 808
Cn1nc(C(=O)N2CCOCC2)c2c1CCN(C(=O)Nc1cccc(Br)c1)C2 | 726
Cc1ccc(-c2nnc(Cc3nc(-c4cccc(Br)c4)no3)o2)cc1C | 1270
O=C(Cn1cnc(-c2ccc(Cl)cc2)cc1=O)NCc1ccccc1OC(F)(F)F | 910
COc1ccc(CC(=O)Nc2nnc(C3CC(=O)N(c4ccc(Cl)cc4)C3)o2)cc1 (configuration not stated) | 761
CN1CCN(c2nc3ccc(NC(=O)C4CC(=O)N(c5ccccc5)C4)cc3s2)CC1 (configuration not stated) | 561
COc1ccc(N2CCN(C(=O)C3CCCN(c4ccncc4)C3)CC2)cc1 (configuration not stated) | 593
O=C(Nc1nnc(SCc2nnc(-c3ccccc3)o2)s1)C1CCCCC1 | 934
O=C(NCc1ccco1)C1CCN(c2nccnc2Sc2ccccc2)CC1 | 883
Cc1ccc(Cn2cccc2-c2nc(-c3ccc(F)cc3)no2)cc1 | 1460
O=S(=O)(c1ccc(F)c(Cl)c1)N1CCc2nc[nH]c2C1 | 632
COc1ccc(Cl)cc1NC(=O)c1cc(C)n2nc(-c3ccco3)cc2n1 | 1300
Cc1ccc(-n2nc(C(=O)N3CCN(c4ncccn4)CC3)c3ncn(C)c(=O)c32)cc1 | 726
COc1nc2ccccc2nc1N1CCCC(C(=O)NC2CCCCC2C)C1 (configuration not stated) | 1090
CS(=O)(=O)N1CCN(CCNC(=O)Nc2cccc(C(F)(F)F)c2)CC1 | 576
Cn1ccc(CN2CCc3ccccc32)cc1=O | 788
O=C(c1cccc(Cl)c1)N1CCN(c2cc(-c3ccc(Cl)cc3)[nH]n2)CC1 | 917
CCc1noc(-c2ccc(SCC(=O)N3CCN(c4ccccn4)CC3)nc2)n1 | 619

Structure (SMILES) | RP-LC retention time [s]
COc1cc(CN2CCc3nc(N4CCCC4)ncc3C2)ccc1OC(C)C | 641
COc1cc(NC(=O)c2cc(C)n3nc(C)cc3n2)cc(OC)c1OC | 847
CC(CNC(=O)C1CCCN1S(=O)(=O)c1cc2c(cc1Cl)NC(=O)CO2)c1ccccc1 (configuration not stated) | 834
COc1ccc(NC(=O)c2nc(N3CCSCC3)c3cnn(C)c3n2)cc1 | 814
O=C1NC(C(=O)Nc2ccc(F)cc2)Cn2cccc21 (configuration not stated) | 666
COC(=O)c1cc(C)nc2c1c(=O)n(Cc1cccc(OC)c1)c(=O)n2C | 970
Cc1nc2nc(-c3ccc(C(C)(C)C)cc3)nn2c(C)c1CC(=O)NC(C)C | 911
Cc1csc(-c2cc(S(=O)(=O)NCCCN3CCC(C)CC3)c(C)s2)n1 | 675
O=C(NCCCN1CCc2ccccc2C1)C1CCCN(c2nnc(-n3cccc3)s2)C1 (configuration not stated) | 593
COc1ccc(OC)c(NC(=O)C(=O)c2ccc[nH]2)c1 | 909
O=C(NCC(c1cccnc1)c1c[nH]c2ccccc12)Nc1ccc(Br)cc1F (configuration not stated) | 716
O=C(NCCC1CCN(C(=O)Nc2cc(F)cc(F)c2)CC1)C1CCCC1 | 860
Cc1c(-c2nnc(C(=O)NCCN3CCCCCC3)o2)oc2ccccc12 | 667
O=C(Nc1ccccc1Br)c1cnc(-c2ccccc2)nc1-c1ccncc1 | 927
Cc1cc(NC(=O)c2cnccn2)sn1 | 606
Cc1ccc(Nc2c(-c3ccc(N4CCOCC4)cc3)nc3cnccn23)cc1 | 848
CCOC(=O)C(NC(=O)Nc1c(-c2cccc(C)c2)nc2ccccn12)C(C)C (configuration not stated) | 690
CC(C)CNC(=O)N1CC(n2cc(C(=O)N(C)C)nn2)C1 | 609
Cn1cc(CCNC(=O)Nc2ccc3c(c2)OCCO3)c2cccnc21 | 639
O=C(Cn1c(=O)n(C2CCCC2)c2ncccc21)Nc1ccc(Br)cc1 | 998
COCCCNC(=O)C1CCCN(c2ccc(=O)n(-c3ccc(OC)cc3)n2)C1 (configuration not stated) | 658
O=C(C1=CCN(Cc2cccc(F)c2)CC1)N1CCN(c2ccccc2F)CC1 | 666
COC(=O)c1cccc(C(=O)Nc2cc(C)cc(C)c2)n1 | 931

Structure (SMILES) | RP-LC retention time [s]
CCOc1cccc(-c2noc(Cn3ncn4nc(-c5ccc(F)cc5)cc4c3=O)n2)c1 | 860
COc1ccc(NC(=O)C2=Cc3ccccc3OC=C2)c(OC)c1 | 1030
Cc1cccc(-c2nnc(-c3cc(S(=O)(=O)N4CCOCC4)ccc3F)o2)c1 | 961
Cc1cc2c(cc1S(=O)(=O)N1CCCC1C(=O)N(C)C1CCCCC1)OC(C)C(=O)N2 (configuration not stated) | 806
CCCN(CC1CCOC1)C(=O)Nc1cccc(SC)c1 (configuration not stated) | 831
Cc1ccc(Cn2c(CCCC(=O)N3CCN(c4ncccn4)CC3)nc3cccnc32)cc1 | 744
Cc1nc2ccn(Cc3ccco3)c(=O)c2cc1C(=O)NC1CCCCC1 | 751
CCCCCNC(=O)C1CCN(c2nccnc2Sc2ccc(C)cc2)CC1 | 1100
Cc1ccn2c(NC(=O)COc3ccccc3)c(-c3ccc(F)cc3)nc2c1 | 689
CC1CCN(CCNC(=O)c2nnc(-c3ccc(S(=O)(=O)N4CCOCC4)cc3)o2)CC1 | 629
CCc1noc(-c2cccnc2N2CCCN(Cc3ccccc3F)CC2)n1 | 662
CCc1cc(=O)n(CC(=O)N(CC)c2ccccc2)c(N)n1 | 628
CC(C)(C)C(=O)Nc1nc(CC(=O)NCCC2=CCCCC2)cs1 | 814
O=C(Nc1ccc(Br)cc1F)C1CCN(C(=O)c2cc(-c3cccnc3)n[nH]2)CC1 | 676
CC(C)NC(=O)c1ccc(OCC2CCN(C(=O)c3ccc(C#N)cc3)CC2)cc1 | 811
COc1ccc(-c2cn3c(CC(=O)N(Cc4ccco4)C4CCCCC4)csc3n2)cc1OC | 890
CCC(CC)C(=O)Nc1nc(-c2ccc3c(c2)NC(=O)CO3)c(C)s1 | 910
Cc1nc(-c2ccc(C(=O)N3CCC(C(=O)N4CCc5ccccc54)CC3)cc2)no1 | 816
COc1ccc2c(c1)-c1nc(NC(=O)c3ccc(Cl)cc3)sc1CC2 | 1180
Cc1ccc(-c2nc(C3CC(=O)N(c4ccc(F)cc4)C3)no2)cc1 (configuration not stated) | 1030
Cc1ccc(-n2c(N3CCC(C(=O)NCCC(C)C)CC3)nc3ccsc3c2=O)cc1 | 890
